# Measurements reported in ChEMBL document CHEMBL1201862, “PubChem BioAssay data set” (2004).
# Activity calls are given as the source filed them. Rule as the data show it, for most assays here: actives have a measured EC50 and inactives only a lower limit.
# How the values were obtained:
# [1] = cytotoxicity toward NIH3T3 fibroblasts, dose response, counter-screen, cell-based, ATP luminescence, mouse fibroblasts (AID 2010); assay type: functional;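 also: cells exposed to compound for about 90 hours before reading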
# [2] = inhibitors of intracellular T. cruzi replication, confirmation, NIH3T3 host cells, beta-gal luminescence (AID 2044); assay type: functional, cell-based;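 also: intracellular parasites grown in NIH/3T3 mouse fibroblasts as host cells; luminescent beta-galactosidase reporter signal from transgenic T. cruzi replicating inside host cells; inhibitors lower the luminescence signal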
# [3] = molecular target: Cytochrome P450 3A4 (Homo sapiens, UniProt P08684);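 also: CYP3A4 tested as one member of a cytochrome P450 panel screen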
# [4] = system: INS1; test: beta cell apoptosis inhibitors, cytokine rescue, dose response, luminescence, retest (AID 449756); assay type: functional, cell-based; details: Rattus norvegicus, INS1;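 also: cell death triggered by IL-1 beta plus TNF-alpha plus IFN-gamma mixture; protective hits raise ATP signal compared with cytokine alone wells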
# [5] = molecular target: T1, Cytochrome P450 1A2 (Homo sapiens, UniProt P05177);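 also: PubChem cytochrome P450 panel assay, CYP1A2 panel member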
# T1 sequence (P05177 whole entry): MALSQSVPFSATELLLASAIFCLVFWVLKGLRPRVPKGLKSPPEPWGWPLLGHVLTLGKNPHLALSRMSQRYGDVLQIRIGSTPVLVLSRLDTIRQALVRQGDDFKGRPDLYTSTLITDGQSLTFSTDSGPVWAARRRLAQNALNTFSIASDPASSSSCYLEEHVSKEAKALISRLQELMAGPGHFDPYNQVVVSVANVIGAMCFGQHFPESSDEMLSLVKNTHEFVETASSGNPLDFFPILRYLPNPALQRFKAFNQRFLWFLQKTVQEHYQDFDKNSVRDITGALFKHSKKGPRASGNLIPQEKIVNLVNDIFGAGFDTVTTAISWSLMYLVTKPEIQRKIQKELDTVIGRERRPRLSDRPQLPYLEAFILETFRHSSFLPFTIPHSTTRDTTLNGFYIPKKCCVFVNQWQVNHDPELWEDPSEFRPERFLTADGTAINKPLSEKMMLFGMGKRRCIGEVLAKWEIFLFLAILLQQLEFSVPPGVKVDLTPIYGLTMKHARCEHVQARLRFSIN
# [6] = molecular target: T2, Zinc finger protein mex-5 (Caenorhabditis elegans, UniProt Q9XUB2); test: MEX-5/TCR-2 RNA interaction inhibitors, dose response, biochemical, C. elegans, fluorescence polarization (AID 1960)
# T2 sequence (Q9XUB2 whole entry): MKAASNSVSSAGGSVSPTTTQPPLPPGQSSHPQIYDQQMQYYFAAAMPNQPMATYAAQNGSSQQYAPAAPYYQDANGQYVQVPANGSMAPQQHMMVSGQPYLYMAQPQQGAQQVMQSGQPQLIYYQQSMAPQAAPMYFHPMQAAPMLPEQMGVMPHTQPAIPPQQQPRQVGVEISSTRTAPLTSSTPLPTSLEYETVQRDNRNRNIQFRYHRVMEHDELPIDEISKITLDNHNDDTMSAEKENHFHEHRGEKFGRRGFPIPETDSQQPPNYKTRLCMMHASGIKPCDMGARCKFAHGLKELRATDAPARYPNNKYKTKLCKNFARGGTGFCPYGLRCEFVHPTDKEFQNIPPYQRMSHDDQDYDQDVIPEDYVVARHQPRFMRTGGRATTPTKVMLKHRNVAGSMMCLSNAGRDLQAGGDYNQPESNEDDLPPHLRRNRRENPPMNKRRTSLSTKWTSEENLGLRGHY
# [7] = molecular target: T3, RNA-binding protein pos-1 (Caenorhabditis elegans, UniProt G5EF15); test: inhibitors of POS-1/mex-3 RNA binding, dose response, biochemical, fluorescence polarization (AID 1964);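 also: purified POS-1 fused to maltose binding protein made in E. coli; potency of compounds blocking POS-1 binding to fluorescent RNA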
# T3 sequence (G5EF15 whole entry): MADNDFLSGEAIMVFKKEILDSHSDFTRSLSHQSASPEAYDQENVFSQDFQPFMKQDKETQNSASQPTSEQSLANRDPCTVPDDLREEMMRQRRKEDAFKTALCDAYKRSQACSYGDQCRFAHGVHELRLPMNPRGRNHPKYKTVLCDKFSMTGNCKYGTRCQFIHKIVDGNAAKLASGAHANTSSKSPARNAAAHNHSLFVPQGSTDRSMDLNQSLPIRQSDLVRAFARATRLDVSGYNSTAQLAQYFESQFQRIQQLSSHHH
# [8] = molecular target: T4, Corticotropin-releasing factor receptor 2/Corticotropin-releasing factor-binding protein (Homo sapiens, UniProt P24387+Q13324); test: activators of CRF receptor 2 with binding protein – uHTS hits, confirmation (AID 602473); assay type: functional; details: read-out: EC50_Mean
# T4 sequence (Q13324 whole entry): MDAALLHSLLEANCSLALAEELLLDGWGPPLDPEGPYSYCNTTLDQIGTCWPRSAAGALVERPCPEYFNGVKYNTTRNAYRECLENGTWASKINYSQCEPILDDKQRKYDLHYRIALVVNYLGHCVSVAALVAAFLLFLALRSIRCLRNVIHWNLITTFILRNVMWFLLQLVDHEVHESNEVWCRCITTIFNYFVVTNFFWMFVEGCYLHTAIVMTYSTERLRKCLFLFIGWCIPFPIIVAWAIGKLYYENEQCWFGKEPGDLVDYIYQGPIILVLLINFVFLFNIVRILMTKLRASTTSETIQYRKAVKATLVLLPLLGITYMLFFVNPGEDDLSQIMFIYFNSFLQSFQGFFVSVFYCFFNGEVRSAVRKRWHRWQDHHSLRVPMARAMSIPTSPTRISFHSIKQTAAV
# T4 sequence (P24387 whole entry): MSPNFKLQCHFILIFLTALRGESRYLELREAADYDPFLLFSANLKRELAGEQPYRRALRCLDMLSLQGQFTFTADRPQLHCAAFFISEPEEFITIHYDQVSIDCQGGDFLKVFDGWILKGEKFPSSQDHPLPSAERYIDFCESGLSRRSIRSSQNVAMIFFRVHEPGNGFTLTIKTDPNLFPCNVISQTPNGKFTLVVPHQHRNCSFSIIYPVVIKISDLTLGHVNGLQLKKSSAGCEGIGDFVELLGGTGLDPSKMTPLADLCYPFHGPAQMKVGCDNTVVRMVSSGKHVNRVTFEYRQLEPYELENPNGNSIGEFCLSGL
# [9] = system: Streptococcus sp. 'group A'; test: growth inhibition of control SK(-) GAS strain, dose response, counter-screen for streptokinase expression inhibitor project, luminescence, kanamycin, BacTiterGlo, confirmation (AID 1900); assay type: functional, organism-based
# [10] = system: Streptococcus; test: Group A Streptococcus viability loss, dose response, counter-screen for streptokinase expression inhibitor project, luminescence, BacTiterGlo (AID 1915); assay type: functional, organism-based;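 also: potency for reduction of bacterial viability or growth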
# [11] = Luminescence Cell-Based Dose Response HTS to Identify Activators of Luciferase Translation or Activity in H4 […] Cells. [Related pubchem assays: 1829 (Project Summary), 1814 (Primary HTS)]; assay type: functional
# Sequence of Cytochrome P450 3A4 (P08684 whole entry): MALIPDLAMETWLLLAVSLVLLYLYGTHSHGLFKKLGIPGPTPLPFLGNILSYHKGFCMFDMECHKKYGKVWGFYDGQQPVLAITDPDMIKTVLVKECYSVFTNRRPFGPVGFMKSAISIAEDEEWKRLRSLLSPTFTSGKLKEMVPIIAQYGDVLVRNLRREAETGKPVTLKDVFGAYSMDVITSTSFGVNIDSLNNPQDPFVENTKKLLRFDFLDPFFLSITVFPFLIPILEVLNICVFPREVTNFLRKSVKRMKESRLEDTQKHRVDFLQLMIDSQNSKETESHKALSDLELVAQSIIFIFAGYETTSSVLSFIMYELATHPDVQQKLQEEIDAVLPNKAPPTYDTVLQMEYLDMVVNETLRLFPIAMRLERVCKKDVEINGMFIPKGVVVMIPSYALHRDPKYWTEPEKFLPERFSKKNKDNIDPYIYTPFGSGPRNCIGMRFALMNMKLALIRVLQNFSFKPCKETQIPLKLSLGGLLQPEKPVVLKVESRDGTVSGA
structure (smiles),measurement,setting,value
COCCn1c(SCC(=O)NC(=O)NCc2ccccc2)nc2ccccc21,EC50,[1],> 60 µM (not active)
same,EC50,[2],1.14 µM (active)
O=C(Nc1cccc(-c2cn3cccnc3n2)c1)c1ccco1,EC50,[1],> 30 µM (not active)
same,EC50,[2],0.941 µM (active)
same,AC50,[3],25.1 µM (inconclusive)
CN1CCCC2(CCN(C(=O)c3cnccn3)CC2)C1,AC50,[3],25.1 µM (inconclusive)
COc1ccccc1CN1C[C@@H]2C[C@@H](c3ccc(C)c(C)c3)N3CCC[C@@]23C1=O,EC50,[1],> 30 µM (not active)
same,EC50,[2],2.26 µM (active)
O=C(NCc1cccnc1)c1sc2cc(Cl)ccc2c1Cl,AC50,[3],0.891 µM (inconclusive)
COc1ccc(Cl)c(Cn2c(NCc3ccco3)nc3c2c(=O)n(C)c(=O)n3C)c1,AC50,[4],3.27 µM (active)
COc1ccc(N(C)S(=O)(=O)c2ccc3c(c2)CCC(=O)N3)cc1,AC50,[5],0.01 µM (inconclusive)
same,AC50,[3],3.55 µM (inconclusive)
CC(C)Cc1ccc(CN2CCC(n3nccc3NC(=O)C3CCCC3)CC2)cc1,EC50,[1],> 60 µM (not active)
same,EC50,[2],0.313 µM (active)
Cc1ccc(-c2cnc(NC(=O)CCC(=O)N(C)Cc3ccccc3)n2C)cc1,AC50,[4],21.3 µM (active)
CCN1C(=O)[C@H]2[C@@H](c3ccc(-c4cccc(Cl)c4)cc3)N[C@@](Cc3ccccc3)(C(=O)OC)[C@H]2C1=O,EC50,[1],14.6 µM (active)
same,EC50,[2],2.06 µM (active)
N#Cc1ccc(CN2CC[C@@]3(CCCNC3)C2)cc1,AC50,[5],25.1 µM (inconclusive)
same,AC50,[3],31.6 µM (inconclusive)
COCCNC(=O)CSc1nc2ccc(N3CCOCC3)cc2c(=O)n1Cc1ccc(OC)cc1,AC50,[5],15.8 µM (inconclusive)
O=C(Nc1ccc(F)cc1F)N1CCCCC1c1cccnc1 (stereo unspecified),EC50,[1],> 60 µM (not active)
same,EC50,[2],0.654 µM (active)
COc1cc(OC)cc(C(=O)Nn2cc(C(=O)N3CCN(C)CC3)c3ccccc3c2=O)c1,AC50,[5],10 µM (inconclusive)
same,AC50,[3],28.2 µM (inconclusive)
COc1ccc(-c2c[n+](-c3ccc(Cl)cc3)c3n2CCCCC3)cc1,EC50,[1],> 60 µM (not active)
same,AC50,[4],2.16 µM (active)
same,EC50,[2],0.781 µM (active)
CC(CN1CCN(C)CC1)OC(=O)c1ccc(Cl)cc1 (stereo unspecified),EC50,[1],> 60 µM (not active)
same,EC50,[2],0.606 µM (active)
C=C(C)CSc1nc2sc3c(c2c(=O)n1-c1ccccc1)CCN(C)C3,EC50,[1],> 30 µM (not active)
same,EC50,[2],0.197 µM (active)
CCN(CC(=O)Nc1ccc(NC(C)=O)cc1)C(=O)CCCOc1ccc(C(C)(C)C)cc1,AC50,[4],23.7 µM (active)
CC(C)[C@H](Sc1nc(N)nc2[nH]cnc12)C(=O)O,AC50,[5],0.316 µM (inconclusive)
CCC(C)n1c(=N)c(C#N)cc2c(=O)n3cccc(C)c3nc21 (stereo unspecified),EC50,[6],21.5 µM (inconclusive)
same,EC50,[7],296 µM (active)
COc1ccc(-c2nc3cnc(N4CCN(C)CC4)nc3n(C)c2=O)cc1,AC50,[5],25.1 µM (inconclusive)
CCN(CC)CCN1c2ccccc2Sc2ccc3ccccc3c21,AC50,[4],14 µM (active)
O=C(CCn1c2c(c3ccccc31)CCCC2)NNC(=O)c1ccccc1C(=O)O,EC50,[8],7.66 µM (active)
CCOC(=O)c1cc(CC)sc1NC=C1C(=O)NC(=S)NC1=O,EC50,[6],15 µM (active)
same,EC50,[7],> 300 µM (not active)
COc1ccc(C2c3ccc(O)cc3Oc3ncn(Cc4ccco4)c(=N)c32)cc1OC (stereo unspecified),EC50,[6],> 300 µM (not active)
same,EC50,[7],> 300 µM (not active)
COc1cccc(F)c1C(=O)NC(=O)Nc1ccc2nc(C)oc2c1,EC50,[6],17.4 µM (active)
same,EC50,[7],17.8 µM (active)
COc1ccc(C2=NOC(CN=C(N)S)C2)cc1 (stereo unspecified),EC50,[9],3.77 µM (active)
same,EC50,[10],10.9 µM (active)
CC(C)(C)C(=O)Nc1ccnc(-c2cccnc2)n1,AC50,[3],2.51 µM (inconclusive)
O=C(CCN1CCN(Cc2ccccc2)CC1)Nc1cccc(Cl)c1,EC50,[1],> 60 µM (not active)
same,EC50,[2],0.965 µM (active)
CCOC(=O)Cc1ccc(NCc2ccc(Cl)cc2)cc1,EC50,[1],> 30 µM (not active)
same,EC50,[2],1.47 µM (active)
CCc1noc(C)c1C(=O)N1CCCC(C(=O)c2cc(F)ccc2OC)C1 (stereo unspecified),EC50,[1],> 60 µM (not active)
same,EC50,[2],9.23 µM (active)
COc1ccc(Nc2ncnc3c2oc2ccccc23)cc1,EC50,[11],7.34 µM (active)
O=C(C1CCCN(Cc2cccc(Cl)c2)C1)N1CCCCC1 (stereo unspecified),EC50,[1],> 30 µM (not active)
same,EC50,[2],0.167 µM (active)
O=C(CN1CCC(C(O)(c2ccccc2)c2ccccc2)CC1)Nc1cc(Cl)ccc1Cl,EC50,[1],9.41 µM (active)
same,EC50,[2],1.38 µM (active)
Cc1ccc(NC(=O)CCS(=O)(=O)c2cc3c(cc2Cl)NC(=O)CO3)cc1,EC50,[6],> 300 µM (not active)
same,EC50,[7],> 300 µM (not active)
Cc1ccc(S(=O)(=O)c2ccccc2)cc1S,EC50,[1],> 30 µM (not active)
same,EC50,[2],0.983 µM (active)
COc1cccc2c(=O)n(CC(=O)N3CCc4ccccc43)ccc12,EC50,[8],> 53 µM (inactive)
CCOc1ccc(N2C(=O)NC(=O)/C(=C\Nc3ccc(N4CCOCC4)cc3)C2=O)cc1,EC50,[6],60.4 µM (inconclusive)
same,EC50,[7],17.6 µM (inconclusive)
CC(=O)N1CCN(C(=O)CC2OC(=O)c3ccccc32)CC1 (stereo unspecified),AC50,[5],22.4 µM (inconclusive)
CCC(CO)Oc1cc(NCc2ccc(C(C)(C)C)cc2)c2ncn(C(C)C)c2c1 (stereo unspecified),AC50,[4],3.07 µM (active)
Cc1ccc(OC[C@H](O)[C@H](C)NC(C)C)c2c1CCC2,AC50,[3],31.6 µM (inconclusive)
Clc1cc(-c2ccc(/C=N/n3cnnc3)o2)ccc1Br,EC50,[6],81.6 µM (active)
same,EC50,[7],59.4 µM (active)
CC(C)OCCCn1/c(=N/C(=O)c2cccs2)c(C#N)cc2c(=O)n3ccccc3nc21,EC50,[6],> 300 µM (not active)
same,EC50,[7],> 300 µM (not active)
CCOc1cc(/C=N/NC(=O)c2cc(-c3cccc(OC)c3)nc3ccccc23)ccc1O,AC50,[4],8.15 µM (active)
O=C(CN1CCOCC1)N/N=C/c1c(O)ccc2ccccc12,AC50,[4],4.87 µM (active)
O=C(O)c1ccccc1C(=O)Nc1cc2c(cc1Br)-c1ccccc1C2=O,AC50,[5],0.631 µM (inconclusive)
COc1ccc(CCNC[C@H](O)c2ccc(O)cc2)cc1OC [DENOPAMINE],AC50,[3],25.1 µM (inconclusive)
